Source: patent publication US20260176320A1, “MODULATORS OF G-PROTEIN COUPLED RECEPTORS” (priority 2018, published 2026)
Read-outs that look alike come from different tables or passages of the source. Numbered stars: 1 amine (or outer) side, 2 acyl side, 3 side chain; on linkers, the order of the positions; unused ones are H or OH. Square brackets hold non-standard residues; d marks the D form. Side chains are listed from the residue outwards. Peptide text beside a SMILES is read from it. * marks the point of attachment. γGlu = O=C(O)[C@H](CCC(=O)[*:2])N[*:1]; Palmitoyl = CCCCCCCCCCCCCCCC(=O)*; X3 = O=C(CSCC(=O)*)NCCn1ccccc1=O; X6 = O=C(CSCC(=O)*)NCCN1CCCCC1=O; Aib = CC(C)(N)C(=O)O

Key:
Type in all cases: cell-based
GLP-1R [1] = biological target: T1, GLP-1R (Homo sapiens, UniProt P43220); assay: PathHunter β-arrestin assay
Outline: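 Following a 90 min agonist exposure at 37 °C in 0.2% BSA medium, β-arrestin coupling was detected by chemiluminescence after 3 h at room temperature.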

GIP-R = biological target: T2, GIP-R (Homo sapiens, UniProt P48546); assay: HitHunter cAMP assay (GIP-R); conditions: cAMP; for Emax: read-out: (Emax) GIP-R
T2 sequence (P48546 22-466): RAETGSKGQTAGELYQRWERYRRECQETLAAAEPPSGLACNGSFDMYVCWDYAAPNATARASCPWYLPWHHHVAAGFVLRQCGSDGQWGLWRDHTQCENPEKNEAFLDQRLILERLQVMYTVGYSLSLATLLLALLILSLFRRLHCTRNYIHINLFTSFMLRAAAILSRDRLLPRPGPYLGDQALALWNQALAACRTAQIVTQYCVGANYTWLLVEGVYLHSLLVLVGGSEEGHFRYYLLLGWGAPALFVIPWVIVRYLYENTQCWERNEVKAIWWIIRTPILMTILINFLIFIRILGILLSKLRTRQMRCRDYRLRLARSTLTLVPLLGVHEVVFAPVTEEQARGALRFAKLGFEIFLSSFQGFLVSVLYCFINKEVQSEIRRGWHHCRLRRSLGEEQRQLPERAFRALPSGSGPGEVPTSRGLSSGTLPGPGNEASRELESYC
Outline: (§1)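 Duplicate 22-point, 2-fold agonist titrations applied to receptor-expressing suspension cells in IBMX-containing HBSS; 30 min RT stimulation. Read: luminescent cAMP immunocompetition after O/N dark incubation.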

GLP-1R [2] = biological target: T1, GLP-1R; assay: HitHunter cAMP assay (GLP-1R); conditions: cAMP; for Emax: read-out: (Emax) GLP-1R
Outline: as §1

[3] = PathHunter β-arrestin assay, read-out: β-arrestin activity EC50
[4] = Table 3A, read-out: EC50 GLP-1R/nM
[5] = Table 3, read-out: EC50 GIP-R/nM
[6] = Table 3A, read-out: EC50 GIP-R/nM
[7] = Table 3, read-out: EC50 GLP-1R/nM

T1 sequence (P43220 24-463): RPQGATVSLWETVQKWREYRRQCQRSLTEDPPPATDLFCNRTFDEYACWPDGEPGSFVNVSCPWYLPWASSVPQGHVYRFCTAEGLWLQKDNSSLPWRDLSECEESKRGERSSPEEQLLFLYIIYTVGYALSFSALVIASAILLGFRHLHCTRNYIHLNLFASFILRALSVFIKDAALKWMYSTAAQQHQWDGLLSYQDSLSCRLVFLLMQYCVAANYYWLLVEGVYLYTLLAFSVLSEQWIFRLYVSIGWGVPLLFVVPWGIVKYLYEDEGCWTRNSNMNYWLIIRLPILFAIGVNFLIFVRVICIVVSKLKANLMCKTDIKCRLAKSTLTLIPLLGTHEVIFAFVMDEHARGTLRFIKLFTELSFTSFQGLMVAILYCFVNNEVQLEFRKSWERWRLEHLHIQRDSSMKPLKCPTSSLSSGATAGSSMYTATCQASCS

| SMILES | EC50 (GLP-1R [1]; [3]) [µM] | Emax (GIP-R; Table 3A) [%] | Emax (GLP-1R [2]; Table 3A) [%] | EC50 (GLP-1R [2]; [4]) [nM] | Emax (GIP-R; Table 3) [%] | EC50 (GIP-R; [5]) [nM] | EC50 (GIP-R; [6]) [nM] | Emax (GLP-1R [2]; Table 3) [%] | EC50 (GLP-1R [2]; [7]) [nM] | EC50 (GLP-1R [1]) [µM] | EC50 (GIP-R; EC50 GIP-R/nM, Table 3) [nM] | EC50 (GIP-R; EC50 GIP-R/nM, Table 3A) [nM] | EC50 (GLP-1R [2]; EC50 GLP-1R/nM, Table 3) [nM] | EC50 (GLP-1R [2]; EC50 GLP-1R/nM, Table 3A) [nM] | Emax at 1 µM (GIP-R; read-out: (Emax) GIP-R at 1 μM, Table 3, at 1 μM) [%] | EC50 (GIP-R; read-out: EC50 GIP-R/nM, Table 3A) [nM] |
| --- | --- | --- | --- | --- | --- | --- | --- | --- | --- | --- | --- | --- | --- | --- | --- | --- |
| CCCCCCCCCCCCCCCC(=O)N[C@@H](CCC(=O)NCCCC[C@H](NC(=O)[C@H](CO)NC(=O)[C@@H]1CCCN1C(=O)[C@@H]1CCCN1C(=O)[C@@H]1CCCN1C(=O)[C@H](C)NC(=O)CNC(=O)[C@H](CO)NC(=O)[C@H](CO)NC(=O)[C@@H]1CCCN1C(=O)CNC(=O)CNC(=O)[C@H](C)NC(=O)[C@H](CC(C)C)NC(=O)[C@H](CC(C)C)NC(=O)[C@H](Cc1c[nH]c2ccccc12)NC(=O)[C@H](CC(N)=O)NC(=O)[C@@H](NC(=O)[C@H](Cc1ccccc1)NC(=O)[C@H](CCC(=O)O)NC(=O)C(C)(C)NC(=O)[C@H](C)NC(=O)[C@H](C)NC(=O)[C@H](CCC(N)=O)NC(=O)[C@H](CCCCN)NC(=O)[C@H](CC(=O)O)NC(=O)[C@H](CC(C)C)NC(=O)[C@H](Cc1ccc(O)cc1)NC(=O)[C@@H](NC(=O)[C@H](CO)NC(=O)[C@H](Cc1ccc(O)cc1)NC(=O)[C@H](CC(=O)O)NC(=O)[C@H](CO)NC(=O)[C@@H](NC(=O)[C@H](Cc1ccccc1)NC(=O)[C@@H](NC(=O)CNC(=O)[C@@H](CC(=O)O)NC(=O)CSCC(=O)NCCN1CCCCC1=O)[C@@H](C)O)[C@@H](C)O)[C@@H](C)CC)C(C)C)C(N)=O)C(=O)O [Compound 218] (X6-[dD]GTFTSDYSIYLDKQAA[Aib]EFVNWLLAGGPSSGAPPPSK([γGlu-Palmitoyl])-NH2) | > 1 | 19 to 23 | 96 | 0.1 to 1 | – | – | – | – | – | – | – | – | – | – | – | – |
| CC[C@H](C)[C@H](NC(=O)[C@H](CO)NC(=O)[C@H](Cc1ccc(O)cc1)NC(=O)[C@H](CC(=O)O)NC(=O)[C@H](CO)NC(=O)[C@@H](NC(=O)[C@H](Cc1ccccc1)NC(=O)[C@@H](NC(=O)CNC(=O)[C@H](CCC(=O)O)NC(=O)CSCC(=O)NCCn1ccccc1=O)[C@@H](C)O)[C@@H](C)O)C(=O)N[C@@H](Cc1ccc(O)cc1)C(=O)N[C@@H](CC(C)C)C(=O)N[C@@H](CC(=O)O)C(=O)N[C@@H](CCCCN)C(=O)N[C@@H](CCC(N)=O)C(=O)N[C@@H](C)C(=O)N[C@@H](C)C(=O)NC(C)(C)C(=O)N[C@@H](CCC(=O)O)C(=O)N[C@@H](Cc1ccccc1)C(=O)N[C@H](C(=O)N[C@@H](CC(N)=O)C(=O)N[C@@H](Cc1c[nH]c2ccccc12)C(=O)N[C@@H](CC(C)C)C(=O)N[C@@H](CC(C)C)C(=O)N[C@@H](C)C(=O)NCC(=O)NCC(=O)N1CCC[C@H]1C(=O)N[C@@H](CO)C(=O)N[C@@H](CO)C(=O)NCC(=O)N[C@@H](C)C(=O)N1CCC[C@H]1C(=O)N1CCC[C@H]1C(=O)N1CCC[C@H]1C(=O)N[C@@H](CO)C(=O)N[C@@H](CCCCN)C(N)=O)[C@@H](C)CC [Compound 118] (X3-EGTFTSDYSIYLDKQAA[Aib]EFINWLLAGGPSSGAPPPSK-NH2) | > 1 | 35 | 95 | < 0.1 | 35 | 1 to 10 | 1 to 10 | 95 | < 0.1 | – | – | – | – | – | – | – |
| CC[C@H](C)[C@H](NC(=O)[C@H](CO)NC(=O)[C@H](Cc1ccc(O)cc1)NC(=O)[C@H](CC(=O)O)NC(=O)[C@H](CO)NC(=O)[C@@H](NC(=O)[C@H](Cc1ccccc1)NC(=O)[C@@H](NC(=O)CNC(=O)[C@H](CCC(=O)O)NC(=O)C(C)(C)C(=O)NCCCCN1C(=O)c2ccccc2C1=O)[C@@H](C)O)[C@@H](C)O)C(=O)N[C@@H](Cc1ccc(O)cc1)C(=O)N[C@@H](CC(C)C)C(=O)N[C@@H](CC(=O)O)C(=O)N[C@@H](CCCCN)C(=O)N[C@@H](CCC(N)=O)C(=O)N[C@@H](C)C(=O)N[C@@H](C)C(=O)NC(C)(C)C(=O)N[C@@H](CCC(=O)O)C(=O)N[C@@H](Cc1ccccc1)C(=O)N[C@H](C(=O)N[C@@H](CC(N)=O)C(=O)N[C@@H](Cc1c[nH]c2ccccc12)C(=O)N[C@@H](CC(C)C)C(=O)N[C@@H](CC(C)C)C(=O)N[C@@H](C)C(=O)NCC(=O)NCC(=O)N1CCC[C@H]1C(=O)N[C@@H](CO)C(=O)N[C@@H](CO)C(=O)NCC(=O)N[C@@H](C)C(=O)N1CCC[C@H]1C(=O)N1CCC[C@H]1C(=O)N1CCC[C@H]1C(=O)N[C@@H](CO)C(=O)N[C@@H](CCCCN)C(N)=O)C(C)C [Compound 141] | – | 46 to 50 | 98 to 100 | – | 46 to 50 | – | – | 98 to 100 | – | > 1 | 10 to 100 | 10 to 100 | 1 to 10 | 1 to 10 | – | – |
| CCCCCCCCCCCCCCCC(=O)N[C@@H](CCC(=O)NCCCC[C@H](NC(=O)[C@H](CO)NC(=O)[C@@H]1CCCN1C(=O)[C@@H]1CCCN1C(=O)[C@@H]1CCCN1C(=O)[C@H](C)NC(=O)CNC(=O)[C@H](CO)NC(=O)[C@H](CO)NC(=O)[C@@H]1CCCN1C(=O)CNC(=O)CNC(=O)[C@H](C)NC(=O)[C@H](CC(C)C)NC(=O)[C@H](CC(C)C)NC(=O)[C@H](Cc1c[nH]c2ccccc12)NC(=O)[C@H](CC(N)=O)NC(=O)[C@@H](NC(=O)[C@H](Cc1ccccc1)NC(=O)[C@H](CCC(=O)O)NC(=O)C(C)(C)NC(=O)[C@H](C)NC(=O)[C@H](C)NC(=O)[C@H](CCC(N)=O)NC(=O)[C@H](CCCCN)NC(=O)[C@H](CC(=O)O)NC(=O)[C@H](CC(C)C)NC(=O)[C@H](Cc1ccc(O)cc1)NC(=O)[C@@H](NC(=O)[C@H](CO)NC(=O)[C@H](Cc1ccc(O)cc1)NC(=O)[C@H](CC(=O)O)NC(=O)[C@H](CO)NC(=O)[C@@H](NC(=O)[C@H](Cc1ccccc1)NC(=O)[C@@H](NC(=O)CNC(=O)[C@H](CCC(=O)O)NC(=O)CSCC(=O)NCCN1CC(=O)NC1=O)[C@@H](C)O)[C@@H](C)O)[C@@H](C)CC)C(C)C)C(N)=O)C(=O)O [Compound 34] | > 1 | 20 to 38 | 107 | 0.1 to 1 | 20 to 38 | 1 to 10 | 1 to 100 | 107 | 0.1 to 1 | – | – | – | – | – | – | – |
| CCCCCCCCCCCCCCCC(=O)N[C@@H](CCC(=O)NCCCC[C@H](NC(=O)[C@H](CO)NC(=O)[C@@H]1CCCN1C(=O)[C@@H]1CCCN1C(=O)[C@@H]1CCCN1C(=O)[C@H](C)NC(=O)CNC(=O)[C@H](CO)NC(=O)[C@H](CO)NC(=O)[C@@H]1CCCN1C(=O)CNC(=O)CNC(=O)[C@H](C)NC(=O)[C@H](CC(C)C)NC(=O)[C@H](CC(C)C)NC(=O)[C@H](Cc1c[nH]c2ccccc12)NC(=O)[C@H](CC(N)=O)NC(=O)[C@@H](NC(=O)[C@H](Cc1ccccc1)NC(=O)[C@H](CCC(=O)O)NC(=O)C(C)(C)NC(=O)[C@H](C)NC(=O)[C@H](C)NC(=O)[C@H](CCC(N)=O)NC(=O)[C@H](CCCCN)NC(=O)[C@H](CC(=O)O)NC(=O)[C@H](CC(C)C)NC(=O)[C@H](Cc1ccc(O)cc1)NC(=O)[C@@H](NC(=O)[C@H](CO)NC(=O)[C@H](Cc1ccc(O)cc1)NC(=O)[C@H](CC(=O)O)NC(=O)[C@H](CO)NC(=O)[C@@H](NC(=O)[C@H](Cc1ccccc1)NC(=O)[C@@H](NC(=O)CNC(=O)[C@H](CCC(=O)O)NC(=O)CSCC(=O)NCCN1C(=O)SC(C)(C)C1=O)[C@@H](C)O)[C@@H](C)O)[C@@H](C)CC)C(C)C)C(N)=O)C(=O)O [Compound 94] | – | 46 | 89 | – | 46 | – | – | 89 | – | > 1 | 1 to 10 | 1 to 10 | 1 to 10 | 1 to 10 | – | – |
| CC[C@H](C)[C@H](NC(=O)[C@H](CO)NC(=O)[C@H](Cc1ccc(O)cc1)NC(=O)[C@H](CC(=O)O)NC(=O)[C@H](CO)NC(=O)[C@@H](NC(=O)[C@H](Cc1ccccc1)NC(=O)[C@@H](NC(=O)CNC(=O)[C@H](CCC(=O)O)NC(=O)C12CC(C(=O)NCCN3C(=O)CSC3=O)(C1)C2)[C@@H](C)O)[C@@H](C)O)C(=O)N[C@@H](Cc1ccc(O)cc1)C(=O)N[C@@H](CC(C)C)C(=O)N[C@@H](CC(=O)O)C(=O)N[C@@H](CCCCN)C(=O)N[C@@H](CCC(N)=O)C(=O)N[C@@H](C)C(=O)N[C@@H](C)C(=O)NC(C)(C)C(=O)N[C@@H](CCC(=O)O)C(=O)N[C@@H](Cc1ccccc1)C(=O)N[C@H](C(=O)N[C@@H](CC(N)=O)C(=O)N[C@@H](Cc1c[nH]c2ccccc12)C(=O)N[C@@H](CC(C)C)C(=O)N[C@@H](CC(C)C)C(=O)N[C@@H](C)C(=O)NCC(=O)NCC(=O)N1CCC[C@H]1C(=O)N[C@@H](CO)C(=O)N[C@@H](CO)C(=O)NCC(=O)N[C@@H](C)C(=O)N1CCC[C@H]1C(=O)N1CCC[C@H]1C(=O)N1CCC[C@H]1C(=O)N[C@@H](CO)C(=O)N[C@@H](CCCCN)C(N)=O)C(C)C [Compound 179] | – | – | 103 | – | – | – | – | 103 | – | 0.01 to 1 | > 1000 | – | 0.1 to 1 | 0.1 to 1 | 2 | > 1000 |
